Data from patent publication US11414424B2, “Cardiac sarcomere inhibitors” (Cytokinetics, Inc., priority 2018, dated 2022).

Columns and labels:
[1] = tested on: adult cardiac ventricular rat myocytes; assay: Adult ventricular myocyte contractility (fractional shortening); assay type: cell-based; conditions: 5 min perfusion
Protocol: Adult male Sprague-Dawley rats were anesthetized and the hearts were quickly excised, rinsed and the ascending aorta was cannulated. Continuous retrograde perfusion was initiated on the hearts at a perfusion pressure of 60 cm H2O. Hearts were first perfused with a nominally Ca^2+-free modified Krebs solution of the following composition: 113 mM NaCl, 4.7 mM KCl, 0.6 mM KH2PO4, 0.6 mM Na2HPO4, 1.2 mM MgSO4, 12 mM NaHCO3, 10 mM KHCO3, 30 mM taurine, 5.5 mM glucose and 10 mM Hepes (all Sigma). This medium was not recirculated and was continually aerated with a 95% O2/5% CO2 mixture. After approximately 3 minutes, the heart was perfused with a modified Krebs buffer supplemented with collagenase (Worthington) and 12.5 μM final calcium concentration. The heart was removed from the cannulae after the heart appeared blanched and soft in appearance. The atria and vessels were removed and the ventricles were gently dissected into smaller pieces with forceps. The tissue was homogenized by repeated pipette trituration and the collagenase reaction was stopped by 10% bovine calf serum (BCS), sedimentation and resuspension in perfusion buffer containing 5% BCS and 12.5 uM CaCl2. Myocytes were made calcium tolerant by stepwise addition of a CaCl2 solution to a final concentration of 1.2 mM. Cells were then washed and resuspended in Tyrode's buffer (137 mM NaCl, 3.7 mM KCl, 0.5 mM MgCl, 11 mM glucose, 4 mM Hepes, and 1.2 mM CaCl2, pH 7.4). Cells were kept for 60 min at 37° C. prior to initiating experiments and used within 5 hrs of isolation. […] Additionally, only cells whose basal contractility was between 3 and 8% were used in subsequent experiments with compounds.
Aliquots of myocytes in Tyrode's buffer were placed in perfusion chambers (series 20 RC-27NE; Warner Instruments) complete with heating platforms. Myocytes were allowed to attach, the chambers were heated to 37° C., and the cells were perfused with 37° C. Tyrode's buffer. Myocytes were field stimulated at 1 Hz in with platinum electrodes (20% above threshold). Only cells that had clear striations and were quiescent prior to pacing were used for contractility experiments. To determine basal contractility, myocytes were imaged through a 40× objective. […] Once cell contraction was stable over time, test compounds (0.01-15 μM) were perfused into the chambers on the myocytes for 5 minutes. Contractility of the myocytes and contraction and relaxation velocities were then recorded using edge detection.
Five or more individual myocytes were tested per compound from two or more different myocyte preparations. For each cell, twenty or more contractility transients at basal (defined as 1 min prior to compound infusion) and after compound addition (defined as 5 min after starting compound perfusion), were averaged and compared. These average transients were analyzed using the IonWizard software (IonOptix) to determine changes in diastolic length and fractional shortening. Fractional shortening was calculated as: ((resting length−length at peak contraction) divided by the resting length). The percent change in fractional shortening from baseline was calculated as: ((post-dose fractional shortening/basal fractional shortening)*100). The percent reduction in fractional shortening from baseline was calculated as: (100−percent change in fractional shortening from baseline). Maximum contraction and relaxation velocities (um/sec) was also determined. Results from individual cells were averaged and the SEM was calculated.

[2] = tested on: bovine cardiac myofibrils; assay: Myofibril assay: PK/LDH-coupled steady-state ATPase activity of skinned bovine cardiac myofibrils; assay type: biochemical; conditions: Ca2+ activating to 75% of maximal rate
How it was run: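 Steady-state ATPase of detergent-skinned bovine left-ventricular myofibrils (1 mg/mL), PK/LDH-coupled NADH read at 340 nm, in PIPES/MgCl2 buffer pH 6.8 with 50 μM ATP, 0.6 mM EGTA and CaCl2 set for 50% or 75% activation. Inhibition of activity measured.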

male Sprague Dawley rats [3] = assay: Echocardiography assessment of acute pharmacodynamic effect on rat cardiac contractility, oral dosing; assay type: in vivo
Protocol: (§1) Assessment of in vivo cardiac function by echocardiography was performed in male Sprague Dawley rats under isoflurane (1-3%) anesthesia. 2-D M-mode images of the left ventricle were acquired in the parasternal long-axis view before, during, and after administration of compounds by continuous IV infusion or oral gavage. In vivo fractional shortening was determined by M-mode image analysis with the following calculation: ((End diastolic diameter−end systolic diameter)/end diastolic diameter×100). For continuous IV infusion experiments, three pre-dose baseline M-mode images were taken at 1 minute intervals prior to infusion of compound. Compounds were formulated in 50% Propylene Glycol (PG): 16% Captisol: 10% dimethylacetamide (DMA) and delivered via a jugular vein catheter at the rate of 1 mL/kg/h. During infusion, M-mode images were taken at 5 minute intervals. The infusion was stopped when fractional shortening reached up to a 60% reduction from baseline. Blood samples were taken to determine the plasma concentration of the compounds. Data were reported as an estimated IC50 value, which is the concentration at which fractional shortening is 50% of the pre-dose baseline contractility.
For oral dosing studies, three pre-dose baseline M-Mode images were taken at 1 minute intervals prior to compound administration. Compounds were formulated in a 0.5% hydroxypropyl methylcellulose 2910 (HPMC 2910): 0.1% Tween 80 suspension and delivered as a single dose (5 mL/kg) by oral gavage. At one and four hours post-dose, rats were lightly anesthetized for M-mode echocardiography measurement. The compound effect on cardiac fractional shortening are presented as a percent reduction of baseline fractional shortening (=100%) in Table D.
Concurrent with echocardiography measurements, blood samples are taken to determine the corresponding compound plasma concentration, which may be represented as IC50 and IC10 values, which is the concentration at which fractional shortening is 50% and 10% of the pre-dose baseline contractility, respectively.

male Sprague Dawley rats [4] = assay: Echocardiography assessment of acute pharmacodynamic effect on rat cardiac contractility, continuous IV infusion; assay type: in vivo; conditions: estimated plasma concentration at which fractional shortening is 50% of the pre-dose baseline contractility, read-out: IC50 (mean ± SD)
Protocol: as §1

In the case of `CC(C)N1CC(=O)N(Cc2ccc(Cl)cc2)C(c2ccc(Cl)cc2)C1=O` (single isomer, unassigned) [Compound 288A, 3-(4-chlorophenyl)-4-[(4-chlorophenyl)methyl]-1-(propan-2-yl)piperazine-2,5-dione], the “% FS (% reduction from baseline) ± SEM” value ([1]; 5 μM) is reported as 64.4 ± 9.7% and the “CDMF75 IC15” value [2] is reported as 0.8 µM.

In the case of `CC(C)N1CC(=O)N(Cc2ccc(Cl)cc2)C2(CCN(c3ccccn3)C2)C1=O` (single isomer, unassigned) [Compound 373A, 6-[(4-chlorophenyl)methyl]-9-(propan-2-yl)-2-(pyridin-2-yl)-2,6,9-triazaspiro[4.5]decane-7,10-dione], the “% FS (% reduction from baseline) ± SEM” value ([1]; 10 μM) is reported as 76.6 ± 8.8% and the “CDMF75 IC15” value [2] is reported as 0.4 µM.

`O=C1C(C2COC2)N(Cc2ccc(C(F)(F)F)cc2)C(=O)CN1c1ncc(Cl)cc1F` (single isomer, unassigned) [Compound 861A, 1-(5-chloro-3-fluoropyridin-2-yl)-3-(oxetan-3-yl)-4-(4-(trifluoromethyl)benzyl)piperazine-2,5-dione] was tested, and the “% FS (% reduction from baseline) ± SEM” value ([1]; 5 μM) was 88.0 ± 3.31%, the “CDMF75 IC15” value [2] was 1.0 µM and the “FS (% reduction from baseline) at 1 h (Mean ± SEM)” value (male Sprague Dawley rats [3]; 10 mg/kg oral) was 13.4 ± 1.6%. The “FS (% reduction from baseline) at 4 h (Mean ± SEM)” value (male Sprague Dawley rats [3]; 10 mg/kg oral) was 2.0 ± 3.1%, the “FS (% reduction from baseline) at 1 h (Mean ± SEM)” value (male Sprague Dawley rats [3]; 100 mg/kg oral) was 50.0 ± 4.0% and the “FS (% reduction from baseline) at 4 h (Mean ± SEM)” value (male Sprague Dawley rats [3]; 100 mg/kg oral) was 48.8 ± 5.0%.

With `CNC(=O)N1CC2(C1)C(=O)N(c1ccc(Cl)cc1)CC(=O)N2Cc1ccc(C(F)(F)F)cc1` [Compound 150, 8-(4-chlorophenyl)-N-methyl-6,9-dioxo-5-(4-(trifluoromethyl)benzyl)-2,5,8-triazaspiro[3.5]-nonane-2-carboxamide] the “CDMF75 IC15” value [2] was 1.1 µM and the IC50 (male Sprague Dawley rats [4]) was 5.44 ± 0.12 µM.

`CC(=O)N1CC2(C1)C(=O)N(c1ccc(C#N)cc1F)CC(=O)N2Cc1ccc(C(F)(F)F)cc1` [Compound 202, 4-(2-acetyl-6,9-dioxo-5-[[4-(trifluoromethyl)phenyl]methyl]-2,5,8-triazaspiro[3.5]nonan-8-yl)-3-fluorobenzonitrile] was tested, and the “% FS (% reduction from baseline) ± SEM” value ([1]; 5 μM) was 68.4 ± 9.5%, the “CDMF75 IC15” value [2] was 0.8 µM and the IC50 (male Sprague Dawley rats [4]) was 3.24 ± 0.07 µM. For the same molecule, the “FS (% reduction from baseline) at 1 h (Mean ± SEM)” value (male Sprague Dawley rats [3]; 3 mg/kg oral) was 21.88 ± 2.66%, the “FS (% reduction from baseline) at 4 h (Mean ± SEM)” value (male Sprague Dawley rats [3]; 3 mg/kg oral) was 11.25 ± 5.54% and the “FS (% reduction from baseline) at 1 h (Mean ± SEM)” value (male Sprague Dawley rats [3]; 15 mg/kg oral) was 51.08 ± 1.93%. For the same molecule, the “FS (% reduction from baseline) at 4 h (Mean ± SEM)” value (male Sprague Dawley rats [3]; 15 mg/kg oral) was 20.18 ± 3.59%.

For `CC(=O)N1CC[C@]2(C1)C(=O)N(c1ccc(C#N)cc1F)CC(=O)N2Cc1ccc(Cl)cc1` [Compound 206, (S)-4-(2-acetyl-6-(4-chlorobenzyl)-7,10-dioxo-2,6,9-triazaspiro[4.5]decan-9-yl)-3-fluorobenzonitrile], the “% FS (% reduction from baseline) ± SEM” value ([1]; 10 μM) was 95.1 ± 1.6% and the “CDMF75 IC15” value [2] was 0.5 µM.

For `CC(=O)N1CC2(C1)C(=O)N(c1ccc(C#N)cc1F)CC(=O)N2[C@@H](C)c1ccc(C(F)(F)F)cc1` [Compound 339, (S)-4-(2-acetyl-6,9-dioxo-5-(1-(4-(trifluoromethyl)phenyl)ethyl)-2,5,8-triazaspiro[3.5]nonan-8-yl)-3-fluorobenzonitrile], the “CDMF75 IC15” value [2] was 0.5 µM, the “FS (% reduction from baseline) at 1 h (Mean ± SEM)” value (male Sprague Dawley rats [3]; 2.5 mg/kg oral) was 21.8 ± 2.8% and the “FS (% reduction from baseline) at 4 h (Mean ± SEM)” value (male Sprague Dawley rats [3]; 2.5 mg/kg oral) was 5.8 ± 4.4%. For the same molecule, the “FS (% reduction from baseline) at 1 h (Mean ± SEM)” value (male Sprague Dawley rats [3]; 5 mg/kg oral) was 66.2 ± 2.9% and the “FS (% reduction from baseline) at 4 h (Mean ± SEM)” value (male Sprague Dawley rats [3]; 5 mg/kg oral) was 19.9 ± 2.0%.
